Reference: ChEMBL document CHEMBL1201861, “Genomics of Drug Sensitity in Cancer screening data, Wellcome Trust Sanger Institute”

What was measured:
Assay in all cases: cells
COLO-741 = format: functional, cell-based, Homo sapiens; settings: Homo sapiens, COLO-741
Description: SANGER: Inhibition of human COLO-741 cell growth in a cell viability assay.

CW-2 = format: functional, cell-based, Homo sapiens; settings: Homo sapiens, CW-2;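 also: growth inhibition of CW-2 cells, read out by a cell viability assay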
Description: SANGER: Inhibition of human CW-2 cell growth in a cell viability assay.

EFO-21 = format: functional, cell-based, Homo sapiens; settings: Homo sapiens, EFO-21;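 also: growth inhibition of EFO-21 cells measured with a viability assay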
Description: SANGER: Inhibition of human EFO-21 cell growth in a cell viability assay.

ES4 = format: functional, cell-based, Homo sapiens; settings: Homo sapiens, ES4;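 also: growth inhibition of human ES4 cells, read out by a cell viability assay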
Description: SANGER: Inhibition of human ES4 cell growth in a cell viability assay.

G-402 = format: functional, cell-based, Homo sapiens; settings: Homo sapiens, G-402
Description: SANGER: Inhibition of human G-402 cell growth in a cell viability assay.

HCC1569 = format: functional, cell-based, Homo sapiens; settings: Homo sapiens, HCC1569;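 also: growth inhibition of human HCC1569 cells, read out with a cell viability assay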
Description: SANGER: Inhibition of human HCC1569 cell growth in a cell viability assay.

HCC2218 = format: functional, cell-based; settings: Homo sapiens;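 also: cell viability assay read-out, with IC50 given as the concentration that inhibits growth of the cell line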
Description: SANGER: Inhibition of human HCC2218 cell growth in a cell viability assay.

HCC 2998 = format: functional, cell-based, Homo sapiens; settings: Homo sapiens, HCC 2998;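 also: growth inhibition of human HCC2998 cells, measured with a cell viability read-out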
Description: SANGER: Inhibition of human HCC2998 cell growth in a cell viability assay.

HD-MY-Z = format: functional, cell-based, Homo sapiens; settings: Homo sapiens, HD-MY-Z;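 also: growth inhibition of HD-MY-Z cells, read out with a cell viability assay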
Description: SANGER: Inhibition of human HD-MY-Z cell growth in a cell viability assay.

HOP-92 = format: functional, cell-based, Homo sapiens; settings: Homo sapiens, HOP-92;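 also: cell viability readout, with IC50 reflecting inhibition of HOP-92 cell growth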
Description: SANGER: Inhibition of human HOP-92 cell growth in a cell viability assay.

HTC-C3 = format: functional, cell-based, Homo sapiens; settings: Homo sapiens, HTC-C3;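 also: inhibition of cell growth, read out with a cell viability assay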
Description: SANGER: Inhibition of human HTC-C3 cell growth in a cell viability assay.

IGR-1 = format: functional, cell-based, Homo sapiens; settings: Homo sapiens, IGR-1;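 also: growth inhibition of human IGR-1 cells, read out with a cell viability assay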
Description: SANGER: Inhibition of human IGR-1 cell growth in a cell viability assay.

J82 = format: functional, cell-based; settings: Homo sapiens;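 also: growth inhibition of J82 cells, read out with a cell viability assay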
Description: SANGER: Inhibition of human J82 cell growth in a cell viability assay.

JAR = format: functional, cell-based, Homo sapiens; settings: Homo sapiens, JAR;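 also: growth inhibition of human JAR cells determined with a cell viability assay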
Description: SANGER: Inhibition of human JAR cell growth in a cell viability assay.

KYSE-150 cell line = format: functional, cell-based, Homo sapiens; settings: Homo sapiens, KYSE-150;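 also: growth inhibition of human KYSE-150 cells, read out with a cell viability assay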
Description: SANGER: Inhibition of human KYSE-150 cell growth in a cell viability assay.

LU-139 = format: functional, cell-based; settings: Homo sapiens
Description: SANGER: Inhibition of human LU-139 cell growth in a cell viability assay.

LXF-289 cell line = format: functional, cell-based, Homo sapiens; settings: Homo sapiens, LXF-289
Description: SANGER: Inhibition of human LXF-289 cell growth in a cell viability assay.

MDA-MB-175-VII = format: functional, cell-based, Homo sapiens; settings: Homo sapiens, MDA-MB-175-VII
ME-180 = format: functional, cell-based; settings: Homo sapiens;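 also: cell viability assay measuring growth inhibition of ME-180 cells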
Description: SANGER: Inhibition of human ME-180 cell growth in a cell viability assay.

MEG-01 = format: functional, cell-based; settings: Homo sapiens;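 also: growth inhibition of MEG-01 cells, read out by a cell viability assay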
Description: SANGER: Inhibition of human MEG-01 cell growth in a cell viability assay.

MIA PaCa-2 = format: functional, cell-based, Homo sapiens; settings: Homo sapiens, MIA PaCa-2;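 also: growth inhibition of MIA PaCa-2 cells, read out with a cell viability assay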
Description: SANGER: Inhibition of human MIA-PaCa-2 cell growth in a cell viability assay.

MOLT-4 = format: functional, cell-based; settings: Homo sapiens;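 also: growth inhibition of MOLT-4 cells, determined with a cell viability readout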
Description: SANGER: Inhibition of human MOLT-4 cell growth in a cell viability assay.

NCI-H1437 = format: functional, cell-based, Homo sapiens; settings: Homo sapiens, NCI-H1437;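 also: growth inhibition of human NCI-H1437 cells, read out by a cell viability assay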
Description: SANGER: Inhibition of human NCI-H1437 cell growth in a cell viability assay.

NCI-H441 = format: functional, cell-based; settings: Homo sapiens;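 also: growth inhibition of NCI-H441 cells, read out with a cell viability assay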
Description: SANGER: Inhibition of human NCI-H441 cell growth in a cell viability assay.

NCI-H446 = format: functional, cell-based; settings: Homo sapiens;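 also: growth inhibition of NCI-H446 cells determined by a cell viability assay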
Description: SANGER: Inhibition of human NCI-H446 cell growth in a cell viability assay.

NCI-H510A = format: functional, cell-based; settings: Homo sapiens;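 also: growth inhibition of NCI-H510A cells, read out with a cell viability assay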
Description: SANGER: Inhibition of human NCI-H510A cell growth in a cell viability assay.

NCI-H520 = format: functional, cell-based, Homo sapiens; settings: Homo sapiens, NCI-H520;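 also: growth inhibition of NCI-H520 cells, measured by a cell viability assay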
Description: SANGER: Inhibition of human NCI-H520 cell growth in a cell viability assay.

SNU1 = format: functional, cell-based; settings: Homo sapiens;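 also: growth inhibition of human NCI-SNU-1 cells, measured with a cell viability assay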
Description: SANGER: Inhibition of human NCI-SNU-1 cell growth in a cell viability assay.

SNU-5 = format: functional, cell-based; settings: Homo sapiens;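 also: cell viability readout used to measure growth inhibition in human NCI-SNU-5 cells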
Description: SANGER: Inhibition of human NCI-SNU-5 cell growth in a cell viability assay.

NOS-1 = format: functional, cell-based, Homo sapiens; settings: Homo sapiens, NOS-1;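 also: growth inhibition of the human NOS-1 cell line, read out with a cell viability assay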
Description: SANGER: Inhibition of human NOS-1 cell growth in a cell viability assay.

PA-1 = format: functional, cell-based, Homo sapiens; settings: Homo sapiens, PA-1;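 also: IC50 for suppression of PA-1 cell proliferation, determined with a cell viability read-out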
Description: SANGER: Inhibition of human PA-1 cell growth in a cell viability assay.

RCM-1 = format: functional, cell-based, Homo sapiens; settings: Homo sapiens, RCM-1;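 also: growth inhibition of the RCM-1 line, determined with a cell viability readout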
Description: SANGER: Inhibition of human RCM-1 cell growth in a cell viability assay.

RMG-I = format: functional, cell-based, Homo sapiens; settings: Homo sapiens, RMG-I;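 also: growth inhibition of human RMG-I cells, read out with a cell viability assay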
Description: SANGER: Inhibition of human RMG-I cell growth in a cell viability assay.

RPMI-8226 = format: functional, cell-based; settings: Homo sapiens
Description: SANGER: Inhibition of human RPMI-8226 cell growth in a cell viability assay.

Ramos-2G6-4C10 = format: functional, cell-based; settings: Homo sapiens;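 also: growth inhibition of the cell line, measured by a cell viability read-out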
Description: SANGER: Inhibition of human Ramos-2G6-4C10 cell growth in a cell viability assay.

SF-268 = format: functional, cell-based, Homo sapiens; settings: Homo sapiens, SF-268;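 also: growth inhibition of SF-268 cells determined with a cell viability assay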
Description: SANGER: Inhibition of human SF268 cell growth in a cell viability assay.

SW1990 = format: functional, cell-based, Homo sapiens; settings: Homo sapiens, SW1990;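 also: cell growth inhibition determined with a viability assay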
Description: SANGER: Inhibition of human SW1990 cell growth in a cell viability assay.

SW48 = format: functional, cell-based, Homo sapiens; settings: Homo sapiens, SW48;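 also: growth inhibition of SW48 cells, read out with a cell viability assay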
Description: SANGER: Inhibition of human SW48 cell growth in a cell viability assay.

SW780 = format: functional, cell-based, Homo sapiens; settings: Homo sapiens, SW780;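 also: growth inhibition of the cells, read out with a cell viability assay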
Description: SANGER: Inhibition of human SW780 cell growth in a cell viability assay.

T47D = format: functional, cell-based, Homo sapiens; settings: Homo sapiens, T47D;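 also: growth inhibition of human T47D cells, measured with a cell viability assay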
Description: SANGER: Inhibition of human T47D cell growth in a cell viability assay.

T98G = format: functional, cell-based, Homo sapiens; settings: Homo sapiens, T98G;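 also: growth inhibition of T98G cells, read out by a cell viability assay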
Description: SANGER: Inhibition of human T98G cell growth in a cell viability assay.

639-V = format: functional, cell-based, Homo sapiens; settings: Homo sapiens, 639-V;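 also: growth inhibition of 639-V cells, read out with a cell viability assay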
Description: SANGER: Inhibition of human 639-V cell growth in a cell viability assay.

A-375 = format: functional, cell-based, Homo sapiens; settings: Homo sapiens, A-375;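 also: growth inhibition of A375 cells, read out with a cell viability assay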
Description: SANGER: Inhibition of human A375 cell growth in a cell viability assay.

ACHN = format: functional, cell-based, Homo sapiens; settings: Homo sapiens, ACHN;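 also: cell viability read-out used to gauge how strongly growth of human ACHN cells is suppressed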
Description: SANGER: Inhibition of human ACHN cell growth in a cell viability assay.

BFTC-909 = format: functional, cell-based, Homo sapiens; settings: Homo sapiens, BFTC-909
Description: SANGER: Inhibition of human BFTC-909 cell growth in a cell viability assay.

BPH-1 = format: functional, cell-based, Homo sapiens; settings: Homo sapiens, BPH-1;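 also: cell viability assay measuring growth inhibition of human BPH-1 cells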
Description: SANGER: Inhibition of human BPH-1 cell growth in a cell viability assay.

CAKI-1 = format: functional, cell-based, Homo sapiens; settings: Homo sapiens, CAKI-1;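 also: growth inhibition of CAKI-1 cells, measured by a cell viability assay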
Description: SANGER: Inhibition of human CAKI-1 cell growth in a cell viability assay.

U-118-MG = format: functional, cell-based, Homo sapiens; settings: Homo sapiens, U-118-MG
Description: SANGER: Inhibition of human U-118-MG cell growth in a cell viability assay.

VA-ES-BJ = format: functional, cell-based, Homo sapiens; settings: Homo sapiens, VA-ES-BJ;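 also: growth inhibition of the VA-ES-BJ cell line, read out by a cell viability assay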
Description: SANGER: Inhibition of human VA-ES-BJ cell growth in a cell viability assay.

COLO-684 = format: functional, cell-based; settings: Homo sapiens
Description: SANGER: Inhibition of human COLO-684 cell growth in a cell viability assay.

CP66-MEL = format: functional, cell-based, Homo sapiens; settings: Homo sapiens, CP66-MEL;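 also: growth inhibition of CP66-MEL cells determined in a cell viability assay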
Description: SANGER: Inhibition of human CP66-MEL cell growth in a cell viability assay.

MFH-ino = format: functional, cell-based; settings: Homo sapiens;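 also: growth inhibition of human MFH-ino cells, read out by a cell viability assay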
Description: SANGER: Inhibition of human MFH-ino cell growth in a cell viability assay.

In the case of `O=C(c1cc(Cc2n[nH]c(=O)c3ccccc23)ccc1F)N1CCN(C(=O)C2CC2)CC1` [OLAPARIB], the IC50 (COLO-741) is reported as > 5 µM, the IC50 (CW-2) is reported as > 5 µM and the IC50 (EFO-21) is reported as > 5 µM. For the same molecule, the IC50 (ES4) was > 5 µM, the IC50 (G-402) was > 5 µM and the IC50 (HCC1569) was > 5 µM. The IC50 (HCC2218) was 3.73 µM, the IC50 (HCC 2998) was > 5 µM and the IC50 (HD-MY-Z) was > 5 µM. The IC50 (HOP-92) was > 5 µM, the IC50 (HTC-C3) was > 5 µM and the IC50 (IGR-1) was > 5 µM. The IC50 (J82) was > 5 µM, the IC50 (JAR) was > 5 µM and the IC50 (KYSE-150 cell line) was > 5 µM. For the same molecule, the IC50 (LU-139) was 4.76 µM, the IC50 (LXF-289 cell line) was > 5 µM and the IC50 (MDA-MB-175-VII) was > 5 µM. The IC50 (ME-180) was > 5 µM, the IC50 (MEG-01) was > 5 µM and the IC50 (MIA PaCa-2) was > 5 µM. The IC50 (MOLT-4) was > 5 µM, the IC50 (NCI-H1437) was > 5 µM and the IC50 (NCI-H441) was > 5 µM. The IC50 (NCI-H446) was > 5 µM, the IC50 (NCI-H510A) was 3.83 µM and the IC50 (NCI-H520) was > 5 µM. The IC50 (SNU1) was > 5 µM, the IC50 (SNU-5) was > 5 µM and the IC50 (NOS-1) was > 5 µM. The IC50 (PA-1) was 4.25 µM, the IC50 (RCM-1) was > 5 µM and the IC50 (RMG-I) was > 5 µM. The IC50 (RPMI-8226) was > 5 µM, the IC50 (Ramos-2G6-4C10) was > 5 µM and the IC50 (SF-268) was > 5 µM. For the same molecule, the IC50 (SW1990) was > 5 µM, the IC50 (SW48) was > 5 µM and the IC50 (SW780) was > 5 µM. The IC50 (T47D) was > 5 µM, the IC50 (T98G) was > 5 µM and the IC50 (639-V) was > 5 µM. The IC50 (A-375) was > 5 µM, the IC50 (ACHN) was > 5 µM and the IC50 (BFTC-909) was > 5 µM. For the same molecule, the IC50 (BPH-1) was > 5 µM, the IC50 (CAKI-1) was > 5 µM and the IC50 (U-118-MG) was > 5 µM. For the same molecule, the IC50 (VA-ES-BJ) was > 5 µM and the IC50 (COLO-684) was 3.52 µM.

For `Cn1cc(C2=C(c3ccc(Cl)cc3Cl)C(=O)NC2=O)c2ccccc21` [SB-216763], the IC50 (COLO-741) was > 10 µM, the IC50 (CP66-MEL) was > 10 µM and the IC50 (CW-2) was > 10 µM. For the same molecule, the IC50 (EFO-21) was > 10 µM, the IC50 (ES4) was > 10 µM and the IC50 (G-402) was > 10 µM. The IC50 (HCC1569) was > 10 µM, the IC50 (HCC 2998) was > 10 µM and the IC50 (HD-MY-Z) was > 10 µM. The IC50 (HOP-92) was > 10 µM, the IC50 (HTC-C3) was > 10 µM and the IC50 (IGR-1) was > 10 µM. The IC50 (J82) was > 10 µM, the IC50 (JAR) was 1.21 µM and the IC50 (KYSE-150 cell line) was > 10 µM. The IC50 (LU-139) was > 10 µM, the IC50 (LXF-289 cell line) was > 10 µM and the IC50 (MDA-MB-175-VII) was > 10 µM. The IC50 (ME-180) was > 10 µM, the IC50 (MEG-01) was > 10 µM and the IC50 (MFH-ino) was > 10 µM. For the same molecule, the IC50 (MIA PaCa-2) was > 10 µM, the IC50 (MOLT-4) was > 10 µM and the IC50 (NCI-H1437) was > 10 µM. The IC50 (NCI-H441) was > 10 µM, the IC50 (NCI-H446) was > 10 µM and the IC50 (NCI-H510A) was > 10 µM. The IC50 (NCI-H520) was > 10 µM, the IC50 (SNU1) was > 10 µM and the IC50 (SNU-5) was > 10 µM. The IC50 (NOS-1) was > 10 µM, the IC50 (PA-1) was > 10 µM and the IC50 (RCM-1) was > 10 µM. For the same molecule, the IC50 (RMG-I) was > 10 µM, the IC50 (RPMI-8226) was > 10 µM and the IC50 (Ramos-2G6-4C10) was > 10 µM. The IC50 (SF-268) was > 10 µM, the IC50 (SW1990) was > 10 µM and the IC50 (SW48) was > 10 µM. For the same molecule, the IC50 (SW780) was > 10 µM, the IC50 (T47D) was > 10 µM and the IC50 (T98G) was > 10 µM. The IC50 (639-V) was > 10 µM, the IC50 (A-375) was > 10 µM and the IC50 (ACHN) was > 10 µM. The IC50 (BFTC-909) was > 10 µM, the IC50 (BPH-1) was > 10 µM and the IC50 (CAKI-1) was > 10 µM. For the same molecule, the IC50 (U-118-MG) was > 10 µM, the IC50 (VA-ES-BJ) was > 10 µM and the IC50 (COLO-684) was > 10 µM.
